According to PubChem BioAssay (NCI):
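All cell lines were grown in 96-well plates and treated with compound for 48 hours. Here, GI50 denotes the concentration required for 50% inhibition of growth. TGI: concentration producing complete growth inhibition.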

Assays:
Assay in all cases: NCI-60 cell line screen, 48 h
SK-OV-3 ovarian = system: SK-OV-3 ovarian
KM12 colon = system: KM12 colon
786-0 renal = system: 786-0 renal
SK-MEL-28 melanoma = system: SK-MEL-28 melanoma
K-562 leukemia = system: K-562 leukemia
HCT-116 colon = system: HCT-116 colon
LOX IMVI melanoma = system: LOX IMVI melanoma
MDA-MB-231 breast = system: MDA-MB-231 breast
NCI-H522 lung = system: NCI-H522 lung
MDA-MB-435 = system: MDA-MB-435
SF-539 CNS = system: SF-539 CNS
SF-295 CNS = system: SF-295 CNS
NCI-H226 lung = system: NCI-H226 lung
SK-MEL-5 melanoma = system: SK-MEL-5 melanoma
RPMI-8226 leukemia = system: RPMI-8226 leukemia
COLO 205 colon = system: COLO 205 colon
HOP-62 NSCLC = system: HOP-62 NSCLC
HCC-2998 colon = system: HCC-2998 colon
HOP-92 NSCLC = system: HOP-92 NSCLC
SK-MEL-2 melanoma = system: SK-MEL-2 melanoma
HL-60(TB) leukemia = system: HL-60(TB) leukemia
BT-549 breast = system: BT-549 breast
M14 melanoma = system: M14 melanoma
OVCAR-3 ovarian = system: OVCAR-3 ovarian
HT29 colon = system: HT29 colon
UACC-62 melanoma = system: UACC-62 melanoma
U251 CNS = system: U251 CNS
MOLT-4 leukemia = system: MOLT-4 leukemia
NCI-H23 lung = system: NCI-H23 lung
T-47D breast = system: T-47D breast
SR leukemia = system: SR leukemia
SNB-75 CNS = system: SNB-75 CNS
A498 renal = system: A498 renal
HCT-15 colon = system: HCT-15 colon
NCI-H460 lung = system: NCI-H460 lung
SN12C renal = system: SN12C renal
NCI/ADR-RES ovarian = system: NCI/ADR-RES ovarian
DU-145 prostate = system: DU-145 prostate
ACHN renal = system: ACHN renal
MALME-3M melanoma = system: MALME-3M melanoma
UO-31 renal = system: UO-31 renal
CAKI-1 renal = system: CAKI-1 renal
RXF 393 renal = system: RXF 393 renal
MCF7 breast = system: MCF7 breast
UACC-257 melanoma = system: UACC-257 melanoma
PC-3 prostate = system: PC-3 prostate
A549 NSCLC = system: A549 NSCLC
CCRF-CEM leukemia = system: CCRF-CEM leukemia
OVCAR-5 ovarian = system: OVCAR-5 ovarian
IGROV1 ovarian = system: IGROV1 ovarian
EKVX NSCLC = system: EKVX NSCLC
OVCAR-8 ovarian = system: OVCAR-8 ovarian
SF-268 CNS = system: SF-268 CNS
OVCAR-4 ovarian = system: OVCAR-4 ovarian
SNB-19 CNS = system: SNB-19 CNS
SW-620 colon = system: SW-620 colon

Clc1ccc(Cn2c(CN3CCCC3)nc3ccccc32)cc1
GI50 (SK-OV-3 ovarian): 20 µM
TGI (SK-OV-3 ovarian): 48.8 µM
GI50 (KM12 colon): 19.5 µM
TGI (KM12 colon): 53.4 µM
GI50 (786-0 renal): 16.8 µM
TGI (786-0 renal): 32.9 µM
GI50 (SK-MEL-28 melanoma): 24.6 µM
TGI (SK-MEL-28 melanoma): 65.5 µM
GI50 (K-562 leukemia): 19.4 µM
TGI (K-562 leukemia): > 100 µM
GI50 (HCT-116 colon): 11 µM
TGI (HCT-116 colon): 24.7 µM
GI50 (LOX IMVI melanoma): 17 µM
TGI (LOX IMVI melanoma): 34.1 µM
GI50 (MDA-MB-231 breast): 18.8 µM
TGI (MDA-MB-231 breast): 41.8 µM
GI50 (NCI-H522 lung): 16.3 µM
TGI (NCI-H522 lung): 33.7 µM
GI50 (MDA-MB-435): 17.1 µM
TGI (MDA-MB-435): 41.2 µM
GI50 (SF-539 CNS): 18 µM
TGI (SF-539 CNS): 37.1 µM
GI50 (SF-295 CNS): 14.3 µM
TGI (SF-295 CNS): 31.4 µM
GI50 (NCI-H226 lung): 14.8 µM
TGI (NCI-H226 lung): 41.8 µM
GI50 (SK-MEL-5 melanoma): 13.3 µM
TGI (SK-MEL-5 melanoma): 26.2 µM
GI50 (RPMI-8226 leukemia): 16.4 µM
TGI (RPMI-8226 leukemia): 41.7 µM
GI50 (COLO 205 colon): 17.6 µM
TGI (COLO 205 colon): 33.4 µM
GI50 (HOP-62 NSCLC): 20.8 µM
TGI (HOP-62 NSCLC): 61.5 µM
GI50 (HCC-2998 colon): 21.6 µM
TGI (HCC-2998 colon): 54 µM
GI50 (HOP-92 NSCLC): 6.03 µM
TGI (HOP-92 NSCLC): 29.5 µM
GI50 (SK-MEL-2 melanoma): 17.8 µM
TGI (SK-MEL-2 melanoma): 34.6 µM
GI50 (HL-60(TB) leukemia): 23.8 µM
TGI (HL-60(TB) leukemia): 65.2 µM
GI50 (BT-549 breast): 18.1 µM
TGI (BT-549 breast): 38.8 µM
GI50 (M14 melanoma): 17.1 µM
TGI (M14 melanoma): 34 µM
GI50 (OVCAR-3 ovarian): 18.4 µM
TGI (OVCAR-3 ovarian): 47.7 µM
GI50 (HT29 colon): 15.5 µM
TGI (HT29 colon): 38.4 µM
GI50 (UACC-62 melanoma): 17.4 µM
TGI (UACC-62 melanoma): 47.3 µM
GI50 (U251 CNS): 15.2 µM
TGI (U251 CNS): 31.4 µM
GI50 (MOLT-4 leukemia): 28.3 µM
TGI (MOLT-4 leukemia): 95.9 µM
GI50 (NCI-H23 lung): 19 µM
TGI (NCI-H23 lung): 59.9 µM
GI50 (T-47D breast): 19.7 µM
TGI (T-47D breast): 83.5 µM
GI50 (SR leukemia): 23.5 µM
TGI (SR leukemia): 75.4 µM
GI50 (SNB-75 CNS): 21.5 µM
TGI (SNB-75 CNS): 82.9 µM
GI50 (A498 renal): 11.3 µM
TGI (A498 renal): 31.3 µM
GI50 (HCT-15 colon): 24.7 µM
TGI (HCT-15 colon): 87.7 µM
GI50 (NCI-H460 lung): 14.5 µM
TGI (NCI-H460 lung): 34.4 µM
GI50 (SN12C renal): 30.1 µM
TGI (SN12C renal): > 100 µM
GI50 (NCI/ADR-RES ovarian): 24.3 µM
TGI (NCI/ADR-RES ovarian): > 100 µM
GI50 (DU-145 prostate): 32.9 µM
TGI (DU-145 prostate): > 100 µM
GI50 (ACHN renal): 31.1 µM
TGI (ACHN renal): > 100 µM
GI50 (MALME-3M melanoma): 14.9 µM
TGI (MALME-3M melanoma): 33.4 µM
GI50 (UO-31 renal): 12.4 µM
TGI (UO-31 renal): 36.5 µM
GI50 (CAKI-1 renal): 14.7 µM
TGI (CAKI-1 renal): 54.8 µM
GI50 (RXF 393 renal): 14.1 µM
TGI (RXF 393 renal): 30.2 µM
GI50 (MCF7 breast): 17 µM
TGI (MCF7 breast): 32.6 µM
GI50 (UACC-257 melanoma): 20 µM
TGI (UACC-257 melanoma): 55 µM
GI50 (PC-3 prostate): 19.6 µM
TGI (PC-3 prostate): 58.3 µM
GI50 (A549 NSCLC): 26.9 µM
TGI (A549 NSCLC): > 100 µM
GI50 (CCRF-CEM leukemia): 27 µM
TGI (CCRF-CEM leukemia): > 100 µM
GI50 (OVCAR-5 ovarian): 25.3 µM
TGI (OVCAR-5 ovarian): 87.8 µM
GI50 (IGROV1 ovarian): 23.3 µM
TGI (IGROV1 ovarian): > 100 µM
GI50 (EKVX NSCLC): 17.5 µM
TGI (EKVX NSCLC): 67.7 µM
GI50 (OVCAR-8 ovarian): 29.7 µM
TGI (OVCAR-8 ovarian): > 100 µM
GI50 (SF-268 CNS): 30.8 µM
TGI (SF-268 CNS): > 100 µM
GI50 (OVCAR-4 ovarian): 21.9 µM
TGI (OVCAR-4 ovarian): 93.3 µM
GI50 (SNB-19 CNS): 22.1 µM
TGI (SNB-19 CNS): 57.1 µM
GI50 (SW-620 colon): 14.8 µM
TGI (SW-620 colon): 33.3 µM
